The values below come from patent US20050282818A1, “Ubiquitin ligase inhibitors” (Rigel Pharmaceuticals, Inc., priority 2004, published 2005).

Where two headings read alike, the source gives them in different places. Bounds are passed on as bounds.

One test deals with T1, TRAF6/Uev1A/Ubc13 (Homo sapiens, UniProt Q9Y4K3).
T1 sequence (Q9Y4K3 1-522): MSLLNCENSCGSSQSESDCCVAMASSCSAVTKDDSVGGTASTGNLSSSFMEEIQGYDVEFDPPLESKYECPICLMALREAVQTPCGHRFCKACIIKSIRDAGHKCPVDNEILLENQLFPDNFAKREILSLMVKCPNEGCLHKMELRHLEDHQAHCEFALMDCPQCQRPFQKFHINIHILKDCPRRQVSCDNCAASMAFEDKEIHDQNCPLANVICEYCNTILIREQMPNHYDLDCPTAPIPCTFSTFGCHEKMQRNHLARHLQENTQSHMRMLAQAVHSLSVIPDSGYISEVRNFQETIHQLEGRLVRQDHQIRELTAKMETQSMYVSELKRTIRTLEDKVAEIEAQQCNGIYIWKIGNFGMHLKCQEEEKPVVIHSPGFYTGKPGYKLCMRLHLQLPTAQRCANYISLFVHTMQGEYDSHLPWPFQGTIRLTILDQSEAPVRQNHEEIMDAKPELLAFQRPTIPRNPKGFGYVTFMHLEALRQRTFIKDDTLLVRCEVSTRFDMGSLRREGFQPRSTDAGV
Kind of test: TRAF6/Uev1A/Ubc13 plate-based ubiquitin ligase assay. The class given is biochemical. In a few lines:
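Ligase activity was read as luminescence from anti-Flag/HRP detection of Flag-ubiquitin bound to casein-blocked Ni-plates alongside His-ubiquitin after a 1 h room-temperature reaction. Buffer: 62.5 mM Tris pH 7.5, 6.25 mM MgCl2, 1.0 mM DTT, 2 μM ATP; E1, Uev1a/Ubc13 and TRAF6 added last to start. IC50s derived across compound concentrations.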

A further test deals with H1299 cells. Kind of test: Cell proliferation PAD assay, H1299. In kind it is cell-based. Conditions: Homo sapiens, 48 hours. The essentials:
(§1)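 2,000 cells/well; compound added at 24 h (duplicate, 6.3-fold series, 10 mM stock, 500× dilution into wells); 48 h, 37 °C/5% CO2. Formamide fix, DAPI stain, image-based counts of live (proliferation), apoptotic, dead cells.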

The next test deals with A549 cells. Nature of the test: Cell proliferation PAD assay, A549. The class given is cell-based. As to conditions: Homo sapiens, 48 hours. The essentials:
as §1

Where [1] appears, read: NCI-H1299, 6pt, read-out: H1299 6pt.
Where [2] appears, read: NCI-H1299, 3pt, read-out: H1299 3pt.

As to `O=[N+]([O-])c1ccc(Sc2cccc3cccnc23)c2nonc12` [compound 5, 8-[(7-Nitro-2,1,3-benzoxadiazol-4-yl)thio]quinoline], the IC50 is 1 to 20 µM on TRAF6/Uev1A/Ubc13; under 1 µM in the test with H1299 cells (setting [1]); under 1 µM in the test with A549 cells (6pt, read-out: A549 6pt).
For `O=[N+]([O-])c1ccc(Oc2c(Cl)cc(S(=O)(=O)Nc3cccc4nsnc34)cc2Cl)c(Cl)c1` [compound 73, N-2,1,3-benzothiadiazol-4-yl-3,5-dichloro-4-(2-chloro-4-nitrophenoxy)benzenesulfonamide], the IC50 was 1 to 20 µM against TRAF6/Uev1A/Ubc13; at least 20 µM in the test with H1299 cells (setting [2]); 1 to 20 µM in the test on H1299 cells (setting [1]); at least 20 µM in the test with A549 cells (3pt, read-out: A549 3pt); 1 to 20 µM with A549 cells (6pt, read-out: A549 6pt).
As to `O=S(=O)(Nc1cccc2nonc12)c1ccc(Oc2ncc(C(F)(F)F)cc2Cl)cc1` [compound 78, N-2,1,3-benzoxadiazol-4-yl-4-{[3-chloro-5-(trifluoromethyl)pyridin-2-yl]oxy}benzenesulfonamide], on TRAF6/Uev1A/Ubc13, the IC50 is 1 to 20 µM.
Take `O=[N+]([O-])c1ccc(N2CCN(c3cc(C(F)(F)F)ccn3)CC2)c2nonc12` [compound 90, 4-nitro-7-{4-[4-(trifluoromethyl)pyridin-2-yl]piperazin-1-yl}-2,1,3-benzoxadiazole]: the IC50 on TRAF6/Uev1A/Ubc13 is 1 to 20 µM; in the test with H1299 cells (setting [2]), at least 20 µM; in the test with H1299 cells (setting [1]), 1 to 20 µM; in the test on A549 cells (3pt, read-out: A549 3pt) it was at least 20 µM; in the test with A549 cells (6pt, read-out: A549 6pt) it was 1 to 20 µM.
Turning to `O=S(=O)(Nc1cccc2nsnc12)c1ccc(Oc2ccccc2)cc1` [compound 94, N-2,1,3-benzothiadiazol-4-yl-4-phenoxybenzenesulfonamide], the IC50 on TRAF6/Uev1A/Ubc13 is 1 to 20 µM.
In the case of `O=[N+]([O-])c1ccc(N2CCN(c3ncccn3)CC2)c2nonc12` [compound 109, 4-nitro-7-(1,3-(pyrimidin-2-yl)piperazin-1-yl)-2,1,3-benzoxadiazole], the IC50 against TRAF6/Uev1A/Ubc13 was 1 to 20 µM; with H1299 cells (setting [2]), at least 20 µM; in the test on A549 cells (3pt, read-out: A549 3pt) it was at least 20 µM.
At TRAF6/Uev1A/Ubc13, `O=[N+]([O-])c1ccc(Oc2ccc(S(=O)(=O)Nc3cccc4nonc34)cc2Cl)c(C(F)(F)F)c1` [compound 114, N-2,1,3-benzoxadiazol-4-yl-3-chloro-4-[4-nitro-2-(trifluoromethyl)phenoxy]benzenesulfonamide] came in with an IC50 of 1 to 20 µM.
As to `N#Cc1ccc(N2CCN(c3ccc([N+](=O)[O-])c4nonc34)CC2)nc1` [compound 121, 6-[4-(7-nitro-2,1,3-benzoxadiazol-4-yl)piperazin-1-yl]nicotinonitrile], the IC50 on TRAF6/Uev1A/Ubc13 is 1 to 20 µM; in the test with H1299 cells (setting [2]) it was at least 20 µM; with A549 cells (3pt, read-out: A549 3pt), at least 20 µM.
On to `Cc1ccc(N2CCN(c3ccc([N+](=O)[O-])c4nonc34)CC2)cc1C` [compound 140, 4-[4-(3,4-dimethylphenyl)piperazin-1-yl]-7-nitro-2,1,3-benzoxadiazole], for which the IC50 is 1 to 20 µM against TRAF6/Uev1A/Ubc13; at least 20 µM with H1299 cells (setting [2]); at least 20 µM in the test with A549 cells (3pt, read-out: A549 3pt).
Regarding `N#CC1(c2ccccc2)CCN(c2ccc([N+](=O)[O-])c3nonc23)CC1` [compound 141, 1-(7-nitro-2,1,3-benzoxadiazol-4-yl)-4-phenylpiperidine-4-carbonitrile], the IC50 at TRAF6/Uev1A/Ubc13 was 1 to 20 µM; in the test with H1299 cells (setting [2]) it was at least 20 µM; in the test on A549 cells (3pt, read-out: A549 3pt), at least 20 µM.
Take `O=C(c1ccc(F)cc1)C1CCN(c2ccc([N+](=O)[O-])c3nonc23)CC1` [compound 142, (4-fluorophenyl)[1-(7-nitro-2,1,3-benzoxadiazol-4-yl)piperidin-4-yl]methanone]: the IC50 against TRAF6/Uev1A/Ubc13 was 1 to 20 µM; in the test with H1299 cells (setting [2]) it was at least 20 µM; in the test with A549 cells (3pt, read-out: A549 3pt), at least 20 µM.
Turning to `CC1CC(C)CN(c2ccc([N+](=O)[O-])c3nonc23)C1` (centres unmarked) [compound 144, 4-(3,5-dimethylpiperidin-1-yl)-7-nitro-2,1,3-benzoxadiazole], the IC50 was 1 to 20 µM on TRAF6/Uev1A/Ubc13 and at least 20 µM in the test on H1299 cells (setting [2]).
On the same counts, the results for `Cc1ccc(Cl)cc1N1CCN(c2ccc([N+](=O)[O-])c3nonc23)CC1` [compound 145, 4-[4-(5-chloro-2-methylphenyl)piperazin-1-yl]-7-nitro-2,1,3-benzoxadiazole] are 1 to 20 µM and at least 20 µM.
Consider `O=[N+]([O-])c1ccc(N2CCN(c3ccc(O)cc3)CC2)c2nonc12` [compound 146, 4-[4-(7-nitro-2,1,3-benzoxadiazol-4-yl)piperazin-1-yl]phenol], for which the IC50 against TRAF6/Uev1A/Ubc13 lay in the range of 1 to 20 µM; in the test on H1299 cells (setting [2]) it was 1 to 20 µM; with A549 cells (3pt, read-out: A549 3pt), 1 to 20 µM.
As for `O=[N+]([O-])c1ccc(N2CCN(c3ncccc3C(F)(F)F)CC2)c2nonc12` [compound 148, 4-nitro-7-{4-[3-(trifluoromethyl)pyridin-2-yl]piperazin-1-yl}-2,1,3-benzoxadiazole], the IC50 on TRAF6/Uev1A/Ubc13 is 1 to 20 µM; in the test on H1299 cells (setting [2]) it was at least 20 µM; in the test on A549 cells (3pt, read-out: A549 3pt), at least 20 µM.
On to `O=[N+]([O-])c1ccc(SCCO)c2nonc12` [compound 150, 2-[(7-nitro-2,1,3-benzoxadiazol-4-yl)thio]ethanol], for which the IC50 against TRAF6/Uev1A/Ubc13 was at least 20 µM; in the test on H1299 cells (setting [2]), 1 to 20 µM; in the test on H1299 cells (setting [1]), under 1 µM; in the test with A549 cells (3pt, read-out: A549 3pt), under 1 µM; in the test on A549 cells (6pt, read-out: A549 6pt), under 1 µM.
Consider `CCOC(=O)c1cc(C#N)c(C)nc1N1CCN(c2ccc([N+](=O)[O-])c3nonc23)CC1` [compound 153, ethyl 5-cyano-6-methyl-2-[4-(7-nitro-2,1,3-benzoxadiazol-4-yl)piperazin-1-yl]nicotinate], for which the IC50 is 1 to 20 µM against TRAF6/Uev1A/Ubc13; at least 20 µM with H1299 cells (setting [2]); at least 20 µM in the test on A549 cells (3pt, read-out: A549 3pt).
In turn, `O=[N+]([O-])c1ccc(Sc2nc3ccccc3s2)c2nonc12` [compound 158, 4-(1,3-benzothiazol-2-ylthio)-7-nitro-2,1,3-benzoxadiazole] returned an IC50 at TRAF6/Uev1A/Ubc13 of 1 to 20 µM.
Same read-out and setting: the value for `O=[N+]([O-])c1ccc(N2CCC(O)(c3ccc(Cl)cc3)CC2)c2nonc12` [compound 159, 4-(4-chlorophenyl)-1-(7-nitro-2,1,3-benzoxadiazol-4-yl)piperidin-4-ol] was 1 to 20 µM.
`COC(=O)c1ccc(NS(=O)(=O)c2ccc(F)c3nonc23)cc1` [compound 167, methyl 4-{[(7-fluoro-2,1,3-benzoxadiazol-4-yl)sulfonyl]amino}benzoate]: the IC50 was at least 20 µM on TRAF6/Uev1A/Ubc13; 1 to 20 µM in the test with H1299 cells (setting [2]); at least 20 µM in the test with H1299 cells (setting [1]); 1 to 20 µM in the test on A549 cells (3pt, read-out: A549 3pt); at least 20 µM in the test with A549 cells (6pt, read-out: A549 6pt).
Regarding `N#Cc1cccnc1N1CCN(S(=O)(=O)c2ccc(Cl)c3nonc23)CC1` [compound 170, 2-{4-[(7-chloro-2,1,3-benzoxadiazol-4-yl)sulfonyl]piperazin-1-yl}nicotinomtrile], the IC50 is 1 to 20 µM against TRAF6/Uev1A/Ubc13; 1 to 20 µM in the test with H1299 cells (setting [2]); at least 20 µM in the test on H1299 cells (setting [1]); 1 to 20 µM in the test with A549 cells (3pt, read-out: A549 3pt); at least 20 µM in the test on A549 cells (6pt, read-out: A549 6pt).
On to `O=[N+]([O-])c1ccc(N2CCN(c3ncc(C(F)(F)F)cc3Cl)CC2)c2nonc12` [compound 315, 4-{4-[3-chloro-5-(trifluoromethyl)pyrindin-2-yl]piperazin-1-yl}-7-nitro-2,1,3-benzoxadiazole], for which, at TRAF6/Uev1A/Ubc13, the IC50 was under 1 µM.
